Measurements taken from patent US20240166587A1, “SARS-CoV-2 inhibitors - artificial compounds” (priority 2021, published 2024).
“And” between values parts separate entries of the source, which are not always exact repeats. Equal entries are not always repeated. Where two headings read alike, the source gives them in different places.

Assays:
SARS-CoV-2 [1] = assay type: cell-based; conditions: Vero cells; for Experiment 2: repeat of TCID50 assay with a dose of 50 uM / Experiment 2: Fold reduction of TCID50 / Experiment 3: repeat of TCID50 assay with a dose of 50 uM / Experiment 3: Fold reduction of TCID50: substance 50 μM; for Experiment 2: Fold reduction of TCID50: experiment 2, versus DMSO ctrl; for Experiment 3: Fold reduction of TCID50: experiment 3, versus DMSO ctrl
SARS-CoV-2 [2] = assay type: cell-based; conditions: Vero E6, 48 hrs
SARS-CoV-2 [3] = assay type: cell-based; conditions: Vero cells, different concentrations, 48 hours
SARS-CoV-2 [4] = assay type: cell-based; conditions: for effect on virus proliferation after short term incubation: versus untreated controls
[5] = biological target: T1, RBD to ACE2 receptor binding (Severe acute respiratory syndrome coronavirus 2, UniProt P0DTC2); assay: Molecular interaction assay to detect inhibition of RBD to ACE2 receptor binding; conditions: for inhibitory effect on binding to ACE2 receptor: His-tagged RBD, plate bound ACE2
T1 construct: 200 ng His-tagged RBD was incubated
Protocol: The molecular interaction assay to detect inhibition of RBD to ACE2 receptor binding was performed as described (Gattinger et al., Allergy, 76 (2021), 878-883) with following alterations: 200 ng His-tagged RBD was incubated with various doses (100, 50, 25, 12.2, and 6 mM) of substance X for three hours at RT followed by a 3-hours overlay onto plate bound ACE2 (2 μg/ml). Bound RBD was then detected with a mouse monoclonal anti-His antibody followed by an HRP-labelled anti-mouse IgG1 antibody and detected with ABTS detected. All measurements were performed in duplicates with a variation of <5%.

| Compound | Experiment 1: TCID50 assay with 2 doses/substance, 10 μM (SARS-CoV-2 [1]) | Experiment 2: repeat of TCID50 assay with a dose of 50 uM (SARS-CoV-2 [1]) | Experiment 2: Fold reduction of TCID50 (SARS-CoV-2 [1]) [fold] | Experiment 3: repeat of TCID50 assay with a dose of 50 uM (SARS-CoV-2 [1]) | Experiment 3: Fold reduction of TCID50 (SARS-CoV-2 [1]) | Experiment 1: TCID50 assay with 2 doses/substance, 100 μM (SARS-CoV-2 [1]) | inhibition of viral replication (SARS-CoV-2 [2]; 100 μM) | inhibition of virus proliferation (SARS-CoV-2 [3]) | effect on virus proliferation after short term incubation (SARS-CoV-2 [4]) | inhibitory effect on binding to ACE2 receptor [5] | ct values after short term incubation (SARS-CoV-2 [4]; 25 μM for one hour) | ct values after short term incubation (SARS-CoV-2 [4]; 50 μM for one hour) | inhibition at 100 µM ([5]; 100 μM) [%] | inhibition of viral replication (SARS-CoV-2 [2]; 80 μM) |
| --- | --- | --- | --- | --- | --- | --- | --- | --- | --- | --- | --- | --- | --- | --- |
| Oc1cc(O)c2c(c1)O[C@H](c1cc(O)c(O)c(O)c1)[C@H](O)C2 [VII, (−)-epigallocatechin] | 2.15 × 10^4 TCID50/mL | 2.89 × 10^5 TCID50/mL | 1.09 | 3.80 × 10^5 TCID50/mL | 7.09 fold | 3.16 × 10^3 TCID50/mL | – | – | – | – | – | – | – | – |
| Oc1ccc(/C=C/c2cc(O)cc(O)c2)cc1 [trihydroxystilbene, trans-3,5,4′-trihydroxystilbene] | – | – | – | – | – | – | low inhibition of viral replication | – | – | – | – | – | – | – |
| (−)-gallocatechin gallate [VIII] | 2.15 × 10^5 TCID50/mL | 3.16 × 10^3 TCID50/mL | 99.7 | 8 × 10^5 TCID50/mL | 5.14 fold | 4.64 × 10^2 TCID50/mL | – | inhibition of virus proliferation | did not have any effects on the virus proliferation | did not show any inhibitory effects | – | – | – | – |
| Oc1cc(/C=C/c2cc(O)c(O)c(O)c2)cc(O)c1O [Compound X, 3,3′,4,4′,5,5′-hexahydroxy-trans-stilbene] | 5.88 × 10^4 TCID50/mL | 3.16 × 10^3 TCID50/mL | 99.7 | 1.95 × 10^3 TCID50/mL | 2107 fold and 2107.2 fold | 4.64 × 10^2 TCID50/mL | inhibit viral replication completely | inhibition of virus proliferation | could inhibit virus proliferation in a concentration dependent manner | could inhibit binding to ACE2 in a concentration dependent manner | significantly increased | significantly increased | 21 to 31 | inhibit viral replication completely |
| O=C(O)c1cc(O)c(O)c(O)c1 [Compound I, gallic acid] | 3.16 × 10^5 TCID50/mL | 3.16 × 10^4 TCID50/mL | 9.97 | 4.44 × 10^5 TCID50/mL | 9.27 fold | 3.56 × 10^5 TCID50/mL | – | – | – | – | – | – | – | – |
| (−) epigallocatechin gallate [Compound IV] | 3.36 × 10^4 TCID50/mL | 3.16 × 10^3 TCID50/mL | 99.7 | 5.12 × 10^3 TCID50/mL | 802 fold and 802.3 fold | cytotoxic | – | inhibition of virus proliferation | did not have any effects on the virus proliferation | did not show any inhibitory effects | – | – | – | – |
